Literature values as cited in patent US20030157036A1, “Topical dapsone for the treatment of acne” (priority 2002, published 2003).

System: P. acnes

In the case of `Nc1ccc(S(=O)(=O)c2ccc(N)cc2)cc1` [Dapsone, bis(4-aminophenyl)sulfone], the minimum inhibitory concentration is given as “about 1 microgram per milliliter”.
